# Laboratory results published in patent publication US9511055B2, “Angiotensin in treating brain conditions” (TARIX PHARMACEUTICALS LTD., priority 2012, dated 2016).
# Columns and labels:
# Type in all cases: in vivo
# [1] = tested on: MCAO rat model of ischemic stroke; assay: Stepping test (forelimb akinesia) after tMCAO; conditions: for stepping test performance vs vehicle control: all experimental conditions (s.c. daily injection or Alzet pump, 28 days), by Day 21 post-surgery; for stepping test performance vs control: day 15
# Method: (§1) For the purposes of this example, Transient middle cerebral artery occlusion (tMCAO) procedure Day is defined as “Day 1” in this study. On the day of surgery anesthesia were induced with 4% isoflurane in a mixture of 70% N2O and 30% O2 and maintained with 1.5-2% isoflurane.
# (§2) The tMCAO procedures were performed according to the method described R. Schmid-Elsaesser et al. Briefly, the right CCA (Common Carotid Artery) was exposed through a midline neck incision and carefully dissected free from surrounding nerves and fascia—from its bifurcation to the base of the skull. The occipital artery branches of the ECA (External Carotid Artery) were then isolated, and these branches were dissected and coagulated. The ECA was dissected further distally and coagulated along with the terminal lingual and maxillary artery branches, which was then divided. The ICA (Internal Carotid Artery) was isolated and carefully separated from the adjacent vagus nerve, and the pterygopalatine artery was ligated close to its origin with a 5-0 nylon suture (SMI, Belgium). Next, a 4-0 silk suture was tied loosely around the mobilized ECA stump, and a 4 cm length of 4-0 monofilament nylon suture (the tip of the suture was blunted by using a flame, and the suture was coated with polylysine, prior to insertion) was inserted through the proximal ECA into the ICA and thence into the circle of Willis, effectively occluding the MCA. The surgical wound was closed and the animals were returned to their cages to recover from anesthesia. One hour and a half after occlusion rats were re-anesthetized, the monofilament was withdrawn to allow reperfusion, the surgical wound was closed and rats were returned to their cages.
# (§3) Animals were subjected to a modified Modified Neurological Rating Scale (mNRS) at 24 hours post reperfusion. Only animals with an overall score of ≧10 are included in this study. Animals were allocated into the test groups, according to the mNRS results on day 2, in order to have similar distribution of rats performance between groups. Started on day 2, 24 hours post-surgery, each animal is implanted subcutaneously with osmotic Alzet pump and is treated by continuous PanCyte administration (2.5 mg/ml or 25 mg/ml in PBS; SEQ ID NO:22).
# Animals were tested for forelimb akinesia in a stepping test. The animal was held with its hind limbs fixed with one hand and the forelimb not monitored with the other, while the unrestrained fore-paw touches a table. The number of adjusting steps were counted while the animal was moved sideways along the table surface (85 cm in approximately five seconds), in the forehand & backhand direction for both forelimbs. […] Four groups were analyzed in this test, a control group (receiving only PBS for 49 days), a group receiving 50 μg/kg PanCyte for 49 days, a group receiving 500 μg/kg PanCyte for 49 days, and a group receiving 50 μg/kg PanCyte for 14 days.
# (§4) Animals were subjected to a modified Modified Neurological Rating Scale (mNRS) at 24 hours post reperfusion. Only animals with an overall score of ≧10 were included in this study. Animals were allocated into the test groups, according to the mNRS results on day 2, in order to have similar distribution of rats performance between groups. Starting on day 2, 24 hours post-surgery, animals in groups 4, 5 and 7 were implanted subcutaneously with an osmotic Alzet pump and treated with either 500 μg/kg TXA127 (SEQ ID NO:1), 500 μg/kg PanCyte (SEQ ID NO:22), or 50 μg/kg Linear PanCyte (SEQ ID NO:6). Animals in groups 2, 3 and 6 received 500 μg/kg or 1,000 μg/kg TXA127 or 500 μg/kg PanCyte, administered subcutaneously via daily injection. Animals in group 1 were treated with a daily subcutaneous injection of a PBS (vehicle).
# Animals were tested for forelimb akinesia in a stepping test (ST). The animal was held with its hind limbs fixed with one hand and the forelimb not to be monitored with the other, while the unrestrained fore-paw touches the table. […]
# [2] = tested on: MCAO rat model of ischemic stroke; assay: Forelimb placement test after tMCAO; conditions: for forelimb placing test performance vs control: Example 1, continuous s.c. Alzet pump
# Method: as §1, §2, §3
# The limb placing tests were divided into both forelimb and hindlimb tests. For the forelimb-placing test, the examiner held the rat close to a tabletop and scored the rat's ability to place the forelimb on the tabletop in response to whisker, visual, tactile, or proprioceptive stimulation. Similarly, for the hindlimb placing test, the examiner assessed the rat's ability to place the hindlimb on the tabletop in response to tactile and proprioceptive stimulation. […]
# [3] = tested on: MCAO rat model of ischemic stroke; assay: Body swing test after tMCAO; conditions: for body swing test performance vs vehicle control / body swing test performance level: Example 2, 28 days; for body swing test performance level: Day 49; for body swing test performance vs control: continuous s.c. Alzet pump
# Method: as §1, §2, §3
# The rat was held approximately one inch from the base of its tail. It was then elevated to an inch above a surface of a table. The rat was held in the vertical axis, defined as no more than 10° to either the left or the right side. A swing was recorded whenever the rat moved its head out of the vertical axis to either side. Before attempting another swing, the rat had to return to the vertical position for the next swing to be counted. Twenty (20) total swings were counted. A normal rat typically has an equal number of swings to either side. Following focal ischemia, rats tend to swing to the contralateral side (left side in this example). Body swing scores are expressed as a percentage of rightward over total swings. […] Four groups were analyzed in this test, a control group (receiving only PBS for 49 days), a group receiving 50 μg/kg PanCyte for 49 days, a group receiving 500 μg/kg PanCyte for 49 days, and a group receiving 50 μg/kg PanCyte for 14 days.
# as §4, with “Animals in group 1 were treated with a daily subcutaneous injection of a PBS (vehicle).” left out
# [4] = tested on: MCAO rat model of ischemic stroke; assay: Overall post-stroke performance in tMCAO rats, Example 2 comparison; conditions: 50 μg/kg Linear PanCyte as compared to 500 μg/kg of PanCyte
# Method: The animal model, surgical procedures, and animal care procedures and conditions were as described above for Example 1 unless otherwise specified.
# as §4
# In addition to the performance benefits discussed above, blood flow and blood vessel diameter was measured using Laser Doppler, according to known protocols, in each non-Alzet group on Day 50.
# [5] = tested on: MCAO rat model of ischemic stroke; assay: Modified Neurological Rating Scale (mNRS) evaluation after tMCAO; conditions: Example 1, continuous s.c. Alzet pump
# Method: as §1
# as §2, with “cages. […]” for “cages.”
# The Modified Neurological Rating Scale (mNRS) was administered by an individual who was unaware of the drug/dose given (blind test). […] Four groups were analyzed in this test, a control group (receiving only PBS for 49 days), a group receiving 50 μg/kg PanCyte for 49 days, a group receiving 500 μg/kg PanCyte for 49 days, and a group receiving 50 μg/kg PanCyte for 14 days. […]
molecule,measurement,setting,value
"Asp^1-Arg^2-Val^3-Ser^4-Ile^5-His^6-Cys^7 (SEQ ID NO:6) (DRVSIHC) [Linear PanCyte, non-cyclized form of PanCyte]",stepping test results compared with ten times as much TXA127 or PanCyte,"[1]; Example 2, 50 ug/kg, s.c. Alzet pump, 28 days, vs 500 μg/kg TXA127 or PanCyte",substantially equivalent
same,stepping test performance vs vehicle control,[1]; Example 2,significantly improved the performance of treated rats
same,forelimb placing test performance compared with the other experimental groups,"[2]; Example 2, 50 μg/kg, s.c. Alzet pump, 28 days, particularly from Day 35 onward",best performance
same,body swing test performance vs vehicle control,"[3]; 50 μg/kg s.c. Alzet pump, Day 21",showed improvement by Day 21
same,body swing test performance vs vehicle control,"[3]; 50 μg/kg s.c. Alzet pump, Day 28",significant improvement in performance by Day 28
same,body swing test performance level,[3]; 50 μg/kg s.c. Alzet pump,near-normal (uninjured) level
same,effectiveness compared with PanCyte,[4],almost equally effective
Asp^1-Arg^2-Val^3-Tyr^4-Ile^5-His^6-Pro^7 (SEQ ID NO: 1) (DRVYIHP) [TXA127],stepping test performance vs vehicle control,[1]; Example 2,significantly improved the performance of treated rats
same,body swing test performance vs vehicle control,"[3]; 500 μg/kg daily s.c. injection, before Day 35",did not show significant results until Day 35
same,body swing test performance vs vehicle control,"[3]; 500 μg/kg s.c. Alzet pump, Day 21",showed improvement by Day 21
same,body swing test performance vs vehicle control,"[3]; 500 μg/kg s.c. Alzet pump, Day 28",significant improvement in performance by Day 28
same,body swing test performance vs vehicle control,"[3]; 1,000 μg/kg daily s.c. injection, Day 21",showed improvement by Day 21
same,body swing test performance vs vehicle control,"[3]; 1,000 μg/kg daily s.c. injection, Day 28",significant improvement in performance by Day 28
same,body swing test performance level,"[3]; TXA 1,000 g/kg group, daily s.c. injection",near-normal (uninjured) level
same,body swing test performance level,"[3]; TXA Alzet group, 500 μg/kg s.c. Alzet pump",near-normal (uninjured) level
"CCC(C)C1NC(=O)C(NC(=O)C(NC(=O)C(CCCNC(=N)N)NC(=O)C(N)CC(=O)O)C(C)C)CSCC(C(=O)O)NC(=O)C(Cc2c[nH]cn2)NC1=O (centres unmarked) [PanCyte, Asp^1-Arg^2-Val^3-Ser^4-Ile^5-His^6-Cys^7 (SEQ ID NO: 22)]",stepping test performance vs control,"[1]; Example 1, 50 μg/kg for 14 days, continuous s.c. Alzet pump, trending toward improvement",did not reach statistically significant levels
same,stepping test performance vs control,"[1]; Example 1, 50 μg/kg for 49 days, continuous s.c. Alzet pump",performed significantly better than controls
same,stepping test performance vs control,"[1]; Example 1, 500 μg/kg for 49 days, continuous s.c. Alzet pump, trending toward improvement",did not reach statistically significant levels
same,stepping test performance (number of adjusting steps) vs control,"[1]; Example 1, each PanCyte group (50 μg/kg 49 days, 500 μg/kg 49 days, 50 μg/kg 14 days), continuous s.c. Alzet pump, day 22, continued through day 36",increased performance of rats by day 22
same,stepping test performance vs vehicle control,[1]; Example 2,significantly improved the performance of treated rats
same,forelimb placing test performance vs control,"[2]; 50 μg/kg for 14 days, from day 15",performed significantly better than control animals beginning on day 15
same,forelimb placing test performance vs control,"[2]; each PanCyte group (50 μg/kg 49 days, 500 μg/kg 49 days, 50 μg/kg 14 days), day 29, continued to day 36",increased performance on this test by day 29
same,forelimb placing test performance vs control,"[2]; other treatment groups (50 μg/kg 49 days, 500 μg/kg 49 days), trending before day 29",did not reach statistical significance until day 29
same,body swing test performance vs control,"[3]; Example 1, 50 μg/kg for 14 days, from day 29",showed statistical significance beginning on day 29
same,body swing test scores vs control,"[3]; Example 1, all treatment groups, from day 8",trend toward improved scores beginning on day 8
same,body swing test performance vs control,"[3]; Example 1, each PanCyte group (50 μg/kg 49 days, 500 μg/kg 49 days, 50 μg/kg 14 days), day 36",improved performance on the test by day 36
same,body swing test performance vs vehicle control,"[3]; 500 μg/kg daily s.c. injection, Day 28",significant improvement in performance by Day 28
same,body swing test performance vs vehicle control,"[3]; PanCyte Alzet group, 500 μg/kg s.c. Alzet pump, Day 21",showed improvement by Day 21
same,body swing test performance vs vehicle control,"[3]; PanCyte Alzet group, 500 μg/kg s.c. Alzet pump, Day 28",significant improvement in performance by Day 28
same,mNRS performance vs control,"[5]; 50 μg/kg for 49 days, days 8 and 15",statistically improved performance on days 8 and 15
same,mNRS performance vs control,"[5]; 500 μg/kg for 49 days, day 22",statistically improved performance on day 22
same,mNRS performance vs control,"[5]; each PanCyte group (50 μg/kg 49 days, 500 μg/kg 49 days, 50 μg/kg 14 days), day 29 and 36",improved performance on the test by day 29
